Measurements from US9096591B2, “Tetracyclic compounds” (Medivation Technologies, Inc., priority 2007, dated 2015).
Read-outs that look alike come from different tables or passages of the source.

Experiments:
[1] = tested on: synaptosomes of cortex of rat brain; assay: Glutamate-induced 45Ca2+ uptake into synaptosomes; format: biochemical, Wistar rats; details: for glutamate-induced 45Ca2+ uptake into synaptosomes of rat cortex, % of control: 50-100 μM; for % Ca of control (control-100%), glutamate-induced 45Ca2+ uptake into synaptosomes: rat cortex synaptosomes
Protocol: Synaptosomes were obtained from cerebral cortex of newborn (9-10 days) Wistar rats using standard Hajos method. The brain was homogenized with 10 volumes of cooled 0.32 M sucrose at 900 rpm. The homogenate was centrifuged at 1500 g for 10 min. and the resulted supernatant was centrifuged at 10000 g for 20 min. The radioactive label was accumulated by suspension of the synaptosomal P2-fraction in the incubation buffer A having the following composition: 132 mM NaCl, 5 mM KCl, 5 mM HEPES, 10 mM glucose, pH 7.4 (protein concentration of approximately 1.5-2 mg/ml). The mixture was further incubated for 5 min with 200 μM glutamate at 37° C. and then ^45Ca^2+ uptake was stopped by filtration through GF/B filters (Whatman, England) followed by three washes with cold buffer B (145 mM KCl, 10 mM Tris, 5.4 mM Trilon B, pH 7.4). The radioactivity probes were analyzed by fluid scintillation beta-analyzer (TriCarb, Perkin Elmer). All tests were performed in three parallel trials in 2-3 independent experiments. The amount of ^45Ca^2+ uptake was estimated by calculating the difference of radioactive label during the stimulation with glutamate and without the stimulation with agonist.
Specific ^45Ca^2+ uptake was estimated using the following equation: K(43/21)=[(Ca4−Ca3)/(Ca2−Ca1)]100%, where
Ca1—^45Ca^2+ uptake for the Control (without glutamate and the compound tested),
[…] glutamate-induced ^45Ca^2+ uptake (glutamate only),
Ca3—^45Ca^2+ uptake in the presence of the compound tested (without glutamate),
Ca4—^45Ca^2+ uptake in the presence of glutamate and the testing compound.
Statistical analysis of the results was performed using Student's t-test.

AMPA receptors = assay: AMPA-receptor activity: kainic acid-induced currents in Purkinje cells (patch-clamp); format: cell-based, rat; details: mean±SEM, control=100%
Protocol: The analysis of effects of the testing compounds on AMPA receptors was carried out using an electrophysiological patch-clamp method in whole cell configuration (Hamill et al., 1980) of the Purkinje cell fresh isolated from the cerebellum of juvenile rats (12-15 days). The isolation was carried out using a modified method (Kaneda et al., 1988) in which cerebral 400-600 μm sections were incubated for 60 min in the temperature controlled chamber in 10 mL of buffer solution (150 mM NaCl, 5 mM KCl, 2 mM CaCl2, 2 mM MgSO4.7H2O, 10 mM HEPES, 15 mM glucose, pH 7.42). The incubation solution was exchanged with the incubation buffer with pronase (2 mg/mL) and collagenase (1 mg/mL) for 70 min. After a 20 min wash with the original buffer, all sections were placed into the Petri dish and were separated using a Pasteur pipette. All solutions were constantly aerated with 100% O2 at 34° C. The composition of extracellular saline was: 150 mM NaCl, 5 mM KCl, 2.6 mM CaCl2, 2 mM MgSO4.7H2O, 10 mM HEPES, 15 mM glucose, pH 7.36. The transmembrane current was induced as a result of the activation of AMPA receptors by a superfusion with the agonist solution (kainic acid). The currents were measured using borosilicate microelectrodes (resistance […]) filled with 100 mM KCl, 11 mM EGTA, 1 mM CaCl2, 1 mM MgCl2, 10 mM HEPES, 5 mM ATP, pH 7.2. The currents were registered using EPC-9 (HEKA, Germany) and recorded with Pulse software package which was also purchased from HEKA. The analysis of observations was carried out using Pulsefit (HEKA, Germany) and the statistical significance was analyzed using a Student's T-test criteria. Data are presented as mean±SEM in % of control values.
Compounds of the invention were tested in 3-5 neurons. Every concentration of compound was repeated three-four times in every neuron. Data are presented as mean±SEM in % of Control values (Table 13+14, FIGS. 8-12). Control value=100%.

rat brain mitochondria [2] = assay: Ca2+-induced swelling of mitochondria (MPT pore opening); format: biochemical, Wistar rats; details: for A540 increase in mitochondrial suspension after addition of 100 μM of compound: 100 μM compound
Protocol: Rat liver and brain mitochondria were prepared from male Wistar rats. The rats were euthanized in a CO2 chamber followed by decapitation the procedure being in compliance with the Guidelines for Animal Experiments at IPAC RAS. […]
Brain mitochondria were isolated from the pooled forebrains of two rats. The modified method of Sims was used to isolate and purify brain mitochondria in a Percoll gradient. The brain was homogenized in “buffer A” (225 mM mannitol, 75 mM sucrose, 5 mM HEPES, 1 mM EGTA, pH 7.4 [KOH]) and centrifuged for 10 min at 1300 g. The supernatant was centrifuged for 10 min at 10000 g, and then the pellet was suspended in 15% Percoll and layered on a discontinuous gradient consisting of 40 and 23% Percoll, respectively, which was then centrifuged for 10 min at 30000 g without using brakes. The mitochondria were collected from the interface of the lower two layers and after resuspension in “buffer A”, the suspension was centrifuged at 16600 g for 10 min, then the pellet was resuspended in “buffer A”, BSA (10 mg/mL) was added to bind free fatty acids; and the suspensions was centrifuged again at 6300 g for 10 min. Following centrifugation the pelleted mitochondria were re-suspended in isolation medium without EGTA to achieve a protein concentration of 15-20 mg/ml.
Mitochondrial swelling caused by influx of solutes through open PT pores results in an increase in light transmission (i.e., a reduced turbidity). This turbidity change offers a convenient and frequently used assay of the MPT by measurement of absorbance in mitochondrial suspensions. In the present study, the MPT induced by Ca^2+ and inorganic phosphate (Ca/Pi) was monitored by absorbance changes at 540 nm in a cuvette in a Beckman DU 640 spectrophotometer in 1 ml of buffer A plus 0.8 μM rotenone, 5 mM succinate, 1 mM KH2PO4 and 0.5 mg or 0.2 mg protein of isolated liver or brain mitochondria, accordingly. Reaction was started by the addition of triggering agent (Ca^2+). Pre-treatment and reaction were performed at 30° C. Swelling rate was quantified as ΔA540/min/mg, calculated, in all cases, from a tangent to the steepest portion of the plot of A540 versus time.
Ca^2+-induced Swelling of mitochondria was used as the primary screening test for compounds influence on MPT pore opening. […] But the inhibition of swelling may be connected not only with direct inhibition of MPT pore opening but also with the impairment of respiratory function of mitochondria and with the compounds action on calcium transport into mitochondria. For the primary estimation of these possibilities the mitochondrial membrane potential and calcium retention capacity of mitochondria were measured. […] New synthesized compounds (except C-14 and C-43) alone induced an increase of brain mitochondria suspension turbidity. The mechanism of such effect needs additional investigations.

rat brain mitochondria [3] = assay: Mitochondrial membrane potential (safranine test); format: biochemical, Wistar rats; details: at concentrations up to 100 mkM
Protocol: The same experimental conditions were used for the assessment of alterations of the mitochondrial membrane potential, except that safranine was included in incubation medium at a final concentration of 10 mkM and succinate was added before the compounds of the invention. This concentration of safranine was determined before hand as the optimal compromise between signal/baseline ratio and interference of safranine itself with swelling induced by Ca/Pi (safranine tended to enhance Ca/Pi-induced swelling at concentrations above 20 mkM). Changes in the status of the mPT pore were assessed spectrophotometrically at 554 and 524 nm in a cuvette in a Beckman DU 640 spectrophotometer. A554-524 represents the characteristics of mitochondrial potential and A554-characteristics of mitochondrial swelling.

[4] = concentration reducing to 50% the initial rate of turbidity fall after calcium addition, read-out: IC50, decrease of calcium-induced swelling of brain mitochondria
[5] = read-out: IC50, Ca2+-induced (25-50 μM) swelling of brain mitochondria, rat brain mitochondria, Ca2+ 25-50 μM

Which “inhibition of glutamate-induced 45Ca2+ uptake into synaptosomes” value ([1]; 0.5 μM) does the source give for `CN1CCc2c(c3ccccc3n2CCc2nc(-c3ccncc3)cs2)C1` [Compound C1-4] here?
Its value is roughly 12.6%.

What about the “glutamate-induced 45Ca2+ uptake into synaptosomes of rat cortex, % of control” value [1] of the same molecule?
The value was roughly 131%.

And the “% Ca of control (control-100%), glutamate-induced 45Ca2+ uptake into synaptosomes” value (shortened to “% Ca of control (control-100%)”) ([1]; compound 0.1 μM)?
The value was 99.1 ± 2.5%.

What about the “% Ca of control (control-100%)” value ([1]; compound 0.5 μM) of the same molecule?
Its value is 87.4 ± 3.7%.

What about the “% Ca of control (control-100%)” value ([1]; compound 1 μM) of the same molecule?
Its value is 96.2 ± 5.0%.

And the “% Ca of control (control-100%)” value ([1]; compound 5 μM)?
The value was 94.9 ± 5.7%.

What about the “% Ca of control (control-100%)” value ([1]; compound 10 μM) of the same molecule?
Its value is 94.3 ± 2.7%.

What about the “% Ca of control (control-100%)” value ([1]; compound 50 μM) of the same molecule?
Its value is 112.7 ± 10.1%.

What about the “% Ca of control (control-100%)” value ([1]; compound 100 μM) of the same molecule?
The value was 131.5 ± 0.1%.

What about the “kainic acid-induced currents in Purkinje cells, % of Control values” (AMPA receptors; compound 10^−5 M) of the same molecule?
The value was 100 ± 9%.

And the “kainic acid-induced currents in Purkinje cells, % of Control values” (AMPA receptors; compound 10^−6 M)?
The value was 109 ± 12%.

And the “kainic acid-induced currents in Purkinje cells, % of Control values” (AMPA receptors; compound 10^−7 M)?
The value was 114 ± 5%.

And the “kainic acid-induced currents in Purkinje cells, % of Control values” (AMPA receptors; compound 10^−8 M)?
Its value is 119 ± 6%.

What about the “kainic acid-induced currents in Purkinje cells, % of Control values” (AMPA receptors; compound 10^−9 M) of the same molecule?
The value was 129 ± 9%.

What about the IC50 (rat brain mitochondria [2]; [4]) of the same molecule?
The IC50 was roughly 94 µM.

And the “A540 increase in mitochondrial suspension after addition of 100 μM of compound” value (rat brain mitochondria [2]; rat brain mitochondria)?
Its value is 1 rel.units.

What about the IC50 (rat brain mitochondria [2]; [5]) of the same molecule?
The IC50 was 93.9 ± 16.4 µM.

What about the “depolarization of brain mitochondria” value (rat brain mitochondria [3]) of the same molecule?
The value was “No depolarization”.

`CN1CCc2c(c3ccccc3n2CCc2noc(-c3ccncc3)n2)C1` [Compound C4-3] was tested. Which “concentration at which glutamate-induced 45Ca2+ uptake into synaptosomes was not affected” value [1] did it give?
The value was 0.1 to 50 µM.

What about the “glutamate-induced 45Ca2+ uptake into synaptosomes of rat cortex, % of control” value [1] of the same molecule?
The value was roughly 126%.

And the “% Ca of control (control-100%)” value ([1]; compound 0.1 μM)?
The value was 93.2 ± 3.0%.

And the “% Ca of control (control-100%)” value ([1]; compound 0.5 μM)?
The value was 92.1 ± 3.3%.

What about the “% Ca of control (control-100%)” value ([1]; compound 1 μM) of the same molecule?
The value was 101.0 ± 1.0%.

What about the “% Ca of control (control-100%)” value ([1]; compound 5 μM) of the same molecule?
The value was 93.7 ± 6.8%.

And the “% Ca of control (control-100%)” value ([1]; compound 10 μM)?
Its value is 94.7 ± 6.9%.

What about the “% Ca of control (control-100%)” value ([1]; compound 50 μM) of the same molecule?
Its value is 117.9 ± 6.0%.

And the “% Ca of control (control-100%)” value ([1]; compound 100 μM)?
Its value is 125.6 ± 3.9%.

What about the “kainic acid-induced currents in Purkinje cells, % of Control values” (AMPA receptors; compound 3 × 10^−5 M) of the same molecule?
Its value is 80 ± 10%.

What about the “kainic acid-induced currents in Purkinje cells, % of Control values” (AMPA receptors; compound 10^−5 M) of the same molecule?
The value was 100 ± 6%.

And the “kainic acid-induced currents in Purkinje cells, % of Control values” (AMPA receptors; compound 10^−6 M)?
Its value is 139 ± 11%.

And the “kainic acid-induced currents in Purkinje cells, % of Control values” (AMPA receptors; compound 10^−7 M)?
Its value is 149 ± 15%.

What about the “kainic acid-induced currents in Purkinje cells, % of Control values” (AMPA receptors; compound 10^−8 M) of the same molecule?
Its value is 145 ± 12%.

What about the “kainic acid-induced currents in Purkinje cells, % of Control values” (AMPA receptors; compound 10^−9 M) of the same molecule?
Its value is 100 ± 3%.

What about the IC50 (rat brain mitochondria [2]; [4]) of the same molecule?
The IC50 was roughly 76 µM.

What about the “A540 increase in mitochondrial suspension after addition of 100 μM of compound” value (rat brain mitochondria [2]; rat brain mitochondria) of the same molecule?
The value was 1 rel.units.

What about the IC50 (rat brain mitochondria [2]; [5]) of the same molecule?
Its IC50 is 76 ± 12 µM.

And the “depolarization of brain mitochondria” value (rat brain mitochondria [3])?
The value was “No depolarization”.
